This is an account of results in patent US20050130894A1, “Process for the synchronization of ovulation for timed breeding without heat detection” (priority 2003, published 2005).

Common to all, as to format: in vivo, swine
For assay [1], the system named is mature postpartum sows. The experiment in a line: Intravulvar injection at estrus detection in mature postpartum sows, AI breeding (Example 2). The protocol:
Sows were assigned randomly in blocks of two to either control or to be injected intravulvar with 50 mcg of deslorelin in SAIB at the time of estrus detection for sows first detected in estrus in the a.m. and 12 hours later for those first detected in estrus in the p.m. Treated animals were bred AI upon detected estrus and again 24 hours later if still in estrus. Controls received a saline injection on first detected estrus behavior estrus detection and were bred according to the farm's normal procedures.

Assay [2] deals with postpartum sows. Put plainly: Single timed injection 96 hours post-weaning, single timed insemination without estrus detection (Example 3). As to conditions: 50 mcg in SAIB at 96 hours post-weaning. As to the method:
(§1) Approximately 170 postpartum sows were randomly divided into two equal groups comprised of controls and treated. Following weaning, the controls were detected for estrus and bred following the normal standard operating procedures for the farms on which they resided. The treated sows received a 50 mcg dose of deslorelin in SAIB at 96 hours post-weaning and were bred with a single insemination 28+/−2 hours later with no regard to estrus detection. The sows were examined for pregnancy by ultrasound at 21 days and slaughtered around 28 days post breeding. The entire reproductive tract was removed and corpora lutea and embryos were counted.

Assay [3] relates to postpartum sows. The experiment in a line: Pregnancy rate after deslorelin treatment in sows, summary of data of Tables 2-5. To be noted: Table 6. As to the method:
as §1, with “counted. Postpartum sows were randomly distributed into three different groups comprised of Controls, Treatment 1, and Treatment 2, with the exception of Site 3, which was divided into two groups, Control and Treatment 2. Control sows were detected for estrus following weaning, and bred following the normal standard operating procedures for the farms on which they resided. Treatment 1 sows were detected for estrus following weaning, and received a 50 mcg dose of deslorelin in the morning when standing and were bred by AI 4 hours later and again at 24+/−2 hours later. Treatment 2 sows received a 50 mcg dose of deslorelin in SAIB at 96 or 120 hours post-weaning and were bred with a single insemination 28+/−2 hours later with no regard to estrus detection. […]” for “counted.”

In assay [4] the test system is postpartum sows. Put plainly: Litter size after deslorelin treatment in postpartum sows, three farm sites (Example 4). To be noted: regardless of estrus detection, Tables 3-5. An excerpt:
Postpartum sows were randomly distributed into three different groups comprised of Controls, Treatment 1, and Treatment 2, with the exception of Site 3, which was divided into two groups, Control and Treatment 2. Control sows were detected for estrus following weaning, and bred following the normal standard operating procedures for the farms on which they resided. Treatment 1 sows were detected for estrus following weaning, and received a 50 mcg dose of deslorelin in the morning when standing and were bred by AI 4 hours later and again at 24+/−2 hours later. Treatment 2 sows received a 50 mcg dose of deslorelin in SAIB at 96 or 120 hours post-weaning and were bred with a single insemination 28+/−2 hours later with no regard to estrus detection.

For the compound `CCNC(=O)[C@@H]1CCCN1C(=O)[C@H](CCCN=C(N)N)NC(=O)[C@H](CC(C)C)NC(=O)[C@@H](Cc1c[nH]c2ccccc12)NC(=O)[C@H](Cc1ccc(O)cc1)NC(=O)[C@H](CO)NC(=O)[C@H](Cc1c[nH]c2ccccc12)NC(=O)[C@H](Cc1cnc[nH]1)NC(=O)[C@@H]1CCC(=O)N1` [Deslorelin, deslorelin], the “Pregnancy Rate” value in assay [1] (50 μg deslorelin acetate (1 ml) intravulvar at first estrus detection, AI, AI again if in estrus next day, n = 75) came out at 91%; in assay [2] (single timed insemination, no estrus detection) it was 71%. For the same compound, the “Length of Estrus” value in assay [1] (50 μg deslorelin acetate (1 ml) intravulvar at first estrus detection, n = 69) amounted to 40.81 h. Further, in assay [1] (50 μg intravulvar at first estrus detection, live piglets born per litter, greater than control), the “Live piglet number, Deslorelin versus Saline sows (difference)” value is recorded as “Live piglet number 0.6> in Deslorelin versus Saline sows”. In assay [2], the “Embryo Survival” value is 64%. Further, the “Sows Pregnant” value in assay [2] (single insemination 28+/-2 hours later, 84 in group) is 60. Moreover, the “Pregnancy rates (in words)” value in assay [3] is on record as “normal pregnancy rates were obtained”. In addition, in assay [4], the “Litter sizes (in words)” value is listed as “normal litter sizes”.
